Test results as given in patent publication US6245817A, “NPY5 receptor antagonists and methods for using same” (Bayer Corporation, priority 1999, dated 2001).
Where a name gives a salt, the structure may show the parent alone.

What was measured:
[1] = molecular target: T1, Rat NPY5 Receptor (Rattus norvegicus, UniProt Q63634); experiment: Rat NPY5 Receptor Binding Assay; conditions: for IC50: [125I]PYY, read-out: rNPY5 IC50; for inhibition at 10 µM: values marked *, read-out: rNPY5 percent inhibition at 10 μM
T1 sequence (Q63634 1-445): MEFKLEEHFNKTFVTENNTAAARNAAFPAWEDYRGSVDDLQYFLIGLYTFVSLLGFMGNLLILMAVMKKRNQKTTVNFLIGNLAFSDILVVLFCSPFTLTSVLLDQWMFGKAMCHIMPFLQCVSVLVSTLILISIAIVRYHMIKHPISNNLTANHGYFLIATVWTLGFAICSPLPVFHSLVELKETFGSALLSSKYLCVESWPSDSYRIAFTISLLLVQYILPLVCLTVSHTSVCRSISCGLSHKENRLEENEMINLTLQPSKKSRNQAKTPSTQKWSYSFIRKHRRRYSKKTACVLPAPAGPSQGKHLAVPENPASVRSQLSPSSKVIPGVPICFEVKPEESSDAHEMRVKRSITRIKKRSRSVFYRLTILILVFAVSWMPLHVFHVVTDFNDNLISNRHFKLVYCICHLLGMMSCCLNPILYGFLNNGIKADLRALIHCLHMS

[2] = molecular target: T2, Human NPY2 receptor (Homo sapiens, UniProt P49146); experiment: Human NPY2 Receptor Binding Assay; conditions: [125I]PYY; read-out: hPPY2 IC50
T2 sequence (P49146 1-381): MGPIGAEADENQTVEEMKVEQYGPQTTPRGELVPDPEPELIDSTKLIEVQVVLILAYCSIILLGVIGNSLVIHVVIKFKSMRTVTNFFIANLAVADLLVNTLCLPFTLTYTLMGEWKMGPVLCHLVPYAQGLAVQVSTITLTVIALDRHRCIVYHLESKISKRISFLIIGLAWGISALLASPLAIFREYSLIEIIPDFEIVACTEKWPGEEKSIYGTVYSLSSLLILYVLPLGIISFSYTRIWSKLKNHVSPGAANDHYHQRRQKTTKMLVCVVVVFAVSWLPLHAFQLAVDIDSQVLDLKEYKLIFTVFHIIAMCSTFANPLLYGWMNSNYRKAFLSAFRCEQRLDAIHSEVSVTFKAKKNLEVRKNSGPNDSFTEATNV
Description: Binding assays were performed on GF/C Millipore 96-well plates pretreated with 0.02% polyethylenimine. The binding buffer for rat Y2 binding is Krebs-Ringer bicarbonate (pH 7.4) containing 0.01% BSA and 0.005% bacitracin. Samples consist of membrane protein, 25 pM [125I]PYY and drug dilution. Nonspecific binding is defined by 1 μpM NPY.
After a 2 hour incubation at room temperature with constant mixing, the samples are aspirated on a vacuum manifold, and rinsed with ice-cold binding buffer. The amount of radioactivity in each well is quantitated with either gamma counting or liquid scintillation.

[3] = molecular target: Human NPY4/PP1 receptor (Homo sapiens, UniProt P50391); experiment: Human NPY4/PP1 Receptor Binding Assay; conditions: [125I]human PP; read-out: hNPY4 IC50
Chain of Human NPY4/PP1 receptor (P50391 whole entry): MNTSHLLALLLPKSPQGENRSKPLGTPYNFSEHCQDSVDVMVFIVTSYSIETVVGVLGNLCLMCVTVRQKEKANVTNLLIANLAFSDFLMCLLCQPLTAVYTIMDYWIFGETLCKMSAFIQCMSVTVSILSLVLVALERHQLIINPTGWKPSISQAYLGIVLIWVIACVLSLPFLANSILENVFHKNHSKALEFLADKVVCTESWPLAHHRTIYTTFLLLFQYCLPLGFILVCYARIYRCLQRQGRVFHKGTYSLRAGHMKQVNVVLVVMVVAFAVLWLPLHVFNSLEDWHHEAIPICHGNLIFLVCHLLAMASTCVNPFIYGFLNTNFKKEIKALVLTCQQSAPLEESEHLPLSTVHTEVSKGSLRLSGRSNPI

[4] = molecular target: T3, Human NPY5 Receptor (Homo sapiens, UniProt Q15761); experiment: Human NPY5 Receptor Binding Assay; conditions: [125I]PYY; read-out: hNPY5 IC50
T3 sequence (Q15761 1-445): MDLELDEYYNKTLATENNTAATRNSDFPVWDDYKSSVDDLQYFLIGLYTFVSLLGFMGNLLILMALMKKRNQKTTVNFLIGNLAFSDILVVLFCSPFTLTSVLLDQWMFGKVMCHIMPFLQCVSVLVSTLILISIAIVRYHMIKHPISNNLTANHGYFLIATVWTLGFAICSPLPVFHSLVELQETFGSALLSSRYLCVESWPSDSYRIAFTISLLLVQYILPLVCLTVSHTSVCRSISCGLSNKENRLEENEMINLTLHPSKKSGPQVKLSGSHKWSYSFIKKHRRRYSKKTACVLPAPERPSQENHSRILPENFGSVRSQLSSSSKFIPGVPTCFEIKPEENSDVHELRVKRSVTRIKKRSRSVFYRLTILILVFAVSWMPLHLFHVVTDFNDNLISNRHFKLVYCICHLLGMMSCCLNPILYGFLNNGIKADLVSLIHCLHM

[5] = molecular target: T4, Human NPY1 Receptor (Homo sapiens, UniProt P25929); experiment: Human NPY1 Receptor Binding Assay; conditions: SK-N-MC cells, [125I]PYY; read-out: hNPY1 IC50
T4 sequence (P25929 1-384): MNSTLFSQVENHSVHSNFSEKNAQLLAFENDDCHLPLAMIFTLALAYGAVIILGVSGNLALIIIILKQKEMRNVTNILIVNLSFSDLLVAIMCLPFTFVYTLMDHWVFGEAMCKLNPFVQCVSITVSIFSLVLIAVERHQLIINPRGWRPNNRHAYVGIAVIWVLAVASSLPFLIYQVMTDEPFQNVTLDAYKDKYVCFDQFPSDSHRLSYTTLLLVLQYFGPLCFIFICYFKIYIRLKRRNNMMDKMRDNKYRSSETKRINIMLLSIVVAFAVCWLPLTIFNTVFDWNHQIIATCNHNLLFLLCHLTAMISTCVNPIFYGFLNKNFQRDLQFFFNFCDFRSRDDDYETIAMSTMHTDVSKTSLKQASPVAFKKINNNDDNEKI

Compound | IC50 [1] | IC50 [2] | IC50 [3] | inhibition at 10 µM [1] | IC50 [4] | IC50 [5]
Cc1ccnc(SCC(=O)Nc2ccc(C3CCCCC3)cc2)n1 [Compound 5, N-(4-Cyclohexyl-phenyl)-2-(4-methyl-pyrimidin-2-ylsultanyl)-acetamide Hydrochloride] | > 1 µM | > 5 µM | > 5 µM | – | – | –
Nc1nc(O)c2[nH]c(SCC(=O)Nc3ccc(C(=O)c4ccccc4)cc3)nc2n1 [Compound 14, 2-(2-Amino-hydroxy-9H-purin-ylsulfanyl)-N-(4-benzoyl-phenyl)-acetamide] | – | > 5 µM | – | 51% | > 10 µM | –
O=C(CSc1nc(-c2ccccc2)c(-c2ccccc2)[nH]1)Nc1ccc(C2CCCCC2)cc1 [Compound 15, N-(4-Cyclohexyl-phenyl)-2-(4,5-diphenyl-1H-imidazol-2-ylsulfanyl)-acetamide] | – | > 5 µM | – | 66% | 9.8 µM | –
O=C(CSc1nc(-c2ccccc2)c(-c2ccccc2)[nH]1)Nc1ccc(C(=O)c2ccccc2)cc1 [Compound 16, N-(4-Benzoyl-phenyl)-2-(4,5-diphenyl-1H-imidazol-2-ylsulfanyl)-acetamide] | – | > 5 µM | – | 80% | 3.6 µM | –
O=C(CSc1ncc[nH]1)Nc1ccc(C2CCCCC2)cc1 [Compound 136, N-(4-Cyclohexyl-phenyl)-2-(1H-imidazol-2-ylsulfanyl)-acetamide] | – | > 5 µM | – | 95% | 0.11 µM | –
CCn1c(SCC(=O)Nc2cc(C)ccc2OC)nnc1C(F)(F)F [Compound 157, N-(2-Methoxy-5-methyl-phenyl)-2-(4-ethyl-5-trifluoromethyl-4H-[1,2,4]triazol-3-ylsulfanyl)-acetamide, reference compound] | > 10 µM | – | > 5 µM | – | > 10 µM | > 5 µM
COC(Cn1c(SCC(=O)Nc2ccc(Cl)cc2)nnc1-c1ccccc1)OC [Compound 162, N-(4-Chloro-phenyl)-2-(4-(2,2-dimethoxy-ethyl)-5-phenyl-4H-[1,2,4]triazol-3-ylsulfanyl]-acetamide, reference compound] | > 10 µM | – | > 5 µM | – | > 10 µM | > 5 µM
CCCCCCCCCCCc1nnc(SCC(=O)Nc2ccc(Cl)cc2)n1-c1ccccc1C(F)(F)F [Compound 178, N-(A-Chloro-phenyl)-2-[4-(2-trifluoromethyl-phenyl)-5-undecyl-4H-[1,2,4]triazol-3-ylsulfanyl]-acetamide, reference compound] | – | > 5 µM | > 5 µM | – | > 10 µM | –
CCCCCCCCCCCc1nnc(SCC(=O)Nc2ccc(C(C)C)cc2)n1-c1ccccc1C(F)(F)F [Compound 179, reference compound] | – | > 5 µM | > 5 µM | – | > 10 µM | –
CC(C)n1c(SCC(=O)Nc2ccc(Cl)cc2)nc2cc(C(F)(F)F)ccc21 [Compound 180, N-(4-Chloro-phenyl]-2-(1-isopropyl-5-trifluoromethy-1H-benzolmidazol-2-ylsulfanyl)-acetamide, reference compound] | – | > 5 µM | > 5 µM | – | > 10 µM | –
CCCCCn1c(O)nnc1SCC(=O)Nc1ccc(Cl)cc1 [Compound 181, N-(4-Chloro-phenyl)-2-(5-hydroxy-4-pentyl-4H-[1,2,4]triazo-3-ylsulfanyl)-acetamide, reference compound] | – | > 5 µM | > 5 µM | – | > 10 µM | –
Cc1ccc(SCC(=O)Nc2ccc(C3CCCCC3)cc2)cc1 [Compound 183, reference compound] | 1.2 µM | > 5 µM | > 5 µM | – | 1.3 µM | –

The next lines start with the values.

IC50 [1] | IC50 [2] | IC50 [3] | inhibition at 10 µM [1] | IC50 [4] | IC50 [5] | Compound
> 10 µM | – | > 5 µM | – | > 10 µM | > 5 µM | Cc1cc(-c2nnc(SCC(=O)Nc3ccccc3)n2C)no1 [Compound 150, 2-[4-Methyl-5-(5-methyl-isoxazol-3-yl)-4H-[1,2,4]triazol-3-ylsulfanyl]-N-phenyl-acetamide, reference compound]
> 10 µM | – | > 5 µM | – | > 10 µM | > 5 µM | CC(C)c1ccc(NC(=O)CSc2nnc(CSc3cccs3)n2C)cc1 [Compound 153, reference compound]
> 10 µM | – | > 5 µM | – | > 10 µM | > 5 µM | CC(C)c1ccc(NC(=O)CSc2nnc(Cc3ccsc3)n2C)cc1 [Compound 158, N-(4-isopropyl-phenyl)-2-(4-methyl-5-thiophen-3-ylmethyl-4H-[1,2,4]triazol-3-ylsulfanyl)-acetamide, reference compound]
> 10 µM | – | > 5 µM | – | > 10 µM | > 5 µM | CSc1sc(-c2nnc(SCC(=O)Nc3ccc(Cl)cc3)n2C)c2c1C=CCC2 [Compound 159, N-(4-Chloro-phenyl)-2-[4-methyl-5-(3-methylsulfanyl-6,7-dihydro-benzo[c]thiophen-1-yl)-4H-[1,2,4]triazol-3-ylsulfanyl]-acetamide, reference compound]
> 10 µM | – | > 5 µM | – | > 10 µM | > 5 µM | Cn1c(SCC(=O)Nc2ccc(Cl)cc2)nnc1-c1ncc(C(F)(F)F)cc1Cl [Compound 160, reference compound]
> 10 µM | – | > 5 µM | – | > 10 µM | > 5 µM | COC(Cn1c(SCC(=O)Nc2ccc(Cl)cc2)nnc1-c1ccc(Cl)cc1)OC [Compound 161, N-(4-Chloro-phenyl)-2-[5-(4-chloro-phenyl)-4-(2,2-dimethoxy-ethyl)-4H-[1,2,4]triazol-3-ylsulfanyl]-ecetamide, reference compound]
> 10 µM | – | > 5 µM | – | > 10 µM | > 5 µM | COC(Cn1c(SCC(=O)Nc2ccc(C(C)C)cc2)nnc1-c1ccccc1)OC [Compound 163, 2-[4-(2,2-Dimethoxy-ethyl)-5-phenyl-4H-[1,2,4]triazol-3-ylsulfanyl]-N-(4-isopmpyl-phenyl)-acetamide, reference compound]
1.7 µM | – | > 5 µM | – | 1.6 µM | > 5 µM | Cn1cnnc1SCC(=O)Nc1ccc(C(C)(C)C)cc1 [Compound 164, N-(4-tert-Butyl-phenyl)-2-(4-methyl-4H-[1,2,4]triazol-3-ylsulfanyl)-acetamide, reference compound]
> 10 µM | – | > 5 µM | – | > 10 µM | > 5 µM | CC(C)c1ccc(NC(=O)CSc2nc3cc(C(F)(F)F)ccc3n2C(C)C)cc1 [Compound 165, N-(4-Isopropyl-phenyl)-2-(1-isopropyl-5-trifluoromethyl-1H-benzolmidazol-2-ylsulfanyl)-acetamide, reference compound]
– | > 5 µM | > 5 µM | – | > 10 µM | – | Cc1cc(-c2nc(C)c(-c3nnc(SCC(=O)Nc4ccc(C(C)C)cc4)n3C)s2)no1 [Compound 177, N-(4-isopropyl-phenyl)-2-(4-methyl-5-[4-methyl-2-(5-methyl-isoxazol-3-yl)-thiazol-5-yl]-4H-[1,2,4]-triazol-3-ylsulfanyl]-acetamide, reference compound]
